# From PubChem BioAssay AID1963968 (Molecular Pharmacology Branch, DTP, NCI, 2024)
# Test system: 945468-187-T-J3-PDC spheroids with HUVEC/MSC, viability
# Experiment: Anticancer human tumor 945468-187-T-J3-PDC patient-derived rectal carcinoma cell line growth inhibition [PI3K]
# Settings: for IC50: curve of first compound; for viability, T/C: stronger effect = lower value
# How it was run: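 Spheroid viability read-out. Co-cultures contained the tumor line plus HUVEC and human MSCs. Each agent was paired with a PI3K inhibitor (inavolisib, alpelisib, duvelisib, copanlisib) across half-log dilutions starting at clinical Cmax, or at 10 microM when Cmax was unknown.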
# [1] = second compound 0.00316 µM, first compound 0.000316 µM
# [2] = second compound 0.00316 µM, first compound 0.001 µM
# [3] = second compound 0.00316 µM, first compound 0.00316 µM
# [4] = second compound 0.00316 µM, first compound 0.01 µM
# [5] = second compound 0.00316 µM, first compound 0.0316 µM
# [6] = second compound 0.00316 µM, first compound 0.1 µM
# [7] = second compound 0.01 µM, first compound 0.000316 µM
# [8] = second compound 0.01 µM, first compound 0.001 µM
# [9] = second compound 0.01 µM, first compound 0.00316 µM
# [10] = second compound 0.01 µM, first compound 0.01 µM
# [11] = second compound 0.01 µM, first compound 0.0316 µM
# [12] = second compound 0.01 µM, first compound 0.1 µM
# [13] = second compound 0.0316 µM, first compound 0.000316 µM
# [14] = second compound 0.0316 µM, first compound 0.001 µM
# [15] = second compound 0.0316 µM, first compound 0.00316 µM
# [16] = second compound 0.0316 µM, first compound 0.01 µM
# [17] = second compound 0.0316 µM, first compound 0.0316 µM
# [18] = second compound 0.0316 µM, first compound 0.1 µM
# [19] = second compound 0.1 µM, first compound 0.000316 µM
# [20] = second compound 0.1 µM, first compound 0.001 µM
# [21] = second compound 0.1 µM, first compound 0.00316 µM
# [22] = second compound 0.1 µM, first compound 0.01 µM
# [23] = second compound 0.1 µM, first compound 0.0316 µM
# [24] = second compound 0.1 µM, first compound 0.1 µM
# [25] = second compound 0.316 µM, first compound 0.000316 µM
# [26] = second compound 0.316 µM, first compound 0.001 µM
# [27] = second compound 0.316 µM, first compound 0.00316 µM
# [28] = second compound 0.316 µM, first compound 0.01 µM
# [29] = second compound 0.316 µM, first compound 0.0316 µM
# [30] = second compound 0.316 µM, first compound 0.1 µM
# [31] = second compound 1 µM, first compound 0.000316 µM
# [32] = second compound 1 µM, first compound 0.001 µM
# [33] = second compound 1 µM, first compound 0.00316 µM
# [34] = second compound 1 µM, first compound 0.01 µM
# [35] = second compound 1 µM, first compound 0.0316 µM
# [36] = second compound 1 µM, first compound 0.1 µM
# 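Note: spheroids exposed to agents for 7 days before viability read.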
# 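Throughout, for viability, T/C: 100% = DMSO vehicle control viability.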
smiles,measurement,setting,value
CC(C)n1nc(-c2ccc3oc(N)nc3c2)c2c(N)ncnc21 + COc1c(OCCCN2CCOCC2)ccc2c3n(c(=NC(=O)c4cnc(N)nc4)nc12)CCN3,IC50,second compound 0.00316 µM,76.1 nM
same,IC50,second compound 0.01 µM,62.6 nM
same,IC50,second compound 0.0316 µM,25.6 nM
same,IC50,second compound 0.1 µM,< 0.316 nM
same,IC50,second compound 0.316 µM,< 0.316 nM
same,IC50,second compound 1 µM,< 0.316 nM
same,"viability, T/C",[1],104%
same,"viability, T/C",[2],85.7%
same,"viability, T/C",[3],95.1%
same,"viability, T/C",[4],78.7%
same,"viability, T/C",[5],92.8%
same,"viability, T/C",[6],37.2%
same,"viability, T/C",[7],97.2%
same,"viability, T/C",[8],81.2%
same,"viability, T/C",[9],93.9%
same,"viability, T/C",[10],86.2%
same,"viability, T/C",[11],90.4%
same,"viability, T/C",[12],22.7%
same,"viability, T/C",[13],88.7%
same,"viability, T/C",[14],77.2%
same,"viability, T/C",[15],85%
same,"viability, T/C",[16],78.4%
same,"viability, T/C",[17],43.6%
same,"viability, T/C",[18],17.1%
same,"viability, T/C",[19],46%
same,"viability, T/C",[20],34%
same,"viability, T/C",[21],33.9%
same,"viability, T/C",[22],26.2%
same,"viability, T/C",[23],20.2%
same,"viability, T/C",[24],13.6%
same,"viability, T/C",[25],20.6%
same,"viability, T/C",[26],21.3%
same,"viability, T/C",[27],21.6%
same,"viability, T/C",[28],17.6%
same,"viability, T/C",[29],16.6%
same,"viability, T/C",[30],13.7%
same,"viability, T/C",[31],18.5%
same,"viability, T/C",[32],15.9%
same,"viability, T/C",[33],14.1%
same,"viability, T/C",[34],13.2%
same,"viability, T/C",[35],12.6%
same,"viability, T/C",[36],10.5%
Cn1ncnc1[C@H]1c2n[nH]c(=O)c3cc(F)cc(c23)N[C@@H]1c1ccc(F)cc1 + COc1c(OCCCN2CCOCC2)ccc2c3n(c(=NC(=O)c4cnc(N)nc4)nc12)CCN3,IC50,second compound 0.00316 µM,> 100 nM
same,IC50,second compound 0.01 µM,> 100 nM
same,IC50,second compound 0.0316 µM,> 100 nM
same,IC50,second compound 0.1 µM,< 0.316 nM
same,IC50,second compound 0.316 µM,< 0.316 nM
same,IC50,second compound 1 µM,< 0.316 nM
same,"viability, T/C",[1],101%
same,"viability, T/C",[2],90.1%
same,"viability, T/C",[3],88.8%
same,"viability, T/C",[4],92.6%
same,"viability, T/C",[5],117%
same,"viability, T/C",[6],92.8%
same,"viability, T/C",[7],99.3%
same,"viability, T/C",[8],91.4%
same,"viability, T/C",[9],97.7%
same,"viability, T/C",[10],92.5%
same,"viability, T/C",[11],101%
same,"viability, T/C",[12],95.4%
same,"viability, T/C",[13],98.8%
same,"viability, T/C",[14],93.9%
same,"viability, T/C",[15],84.2%
same,"viability, T/C",[16],86%
same,"viability, T/C",[17],89.2%
same,"viability, T/C",[18],97.6%
same,"viability, T/C",[19],46.5%
same,"viability, T/C",[20],55.3%
same,"viability, T/C",[21],40.8%
same,"viability, T/C",[22],49.5%
same,"viability, T/C",[23],42%
same,"viability, T/C",[24],38.8%
same,"viability, T/C",[25],20.3%
same,"viability, T/C",[26],21.3%
same,"viability, T/C",[27],19.4%
same,"viability, T/C",[28],22.2%
same,"viability, T/C",[29],21.2%
same,"viability, T/C",[30],18.5%
same,"viability, T/C",[31],14.1%
same,"viability, T/C",[32],15.5%
same,"viability, T/C",[33],15.3%
same,"viability, T/C",[34],15.7%
same,"viability, T/C",[35],14.8%
same,"viability, T/C",[36],12.6%
CCN1CCN(Cc2ccc(Nc3ncc(F)c(-c4cc(F)c5nc(C)n(C(C)C)c5c4)n3)nc2)CC1 + COc1c(OCCCN2CCOCC2)ccc2c3n(c(=NC(=O)c4cnc(N)nc4)nc12)CCN3,IC50,second compound 0.00316 µM,> 1000 nM
same,IC50,second compound 0.01 µM,662 nM
same,IC50,second compound 0.0316 µM,256 nM
same,IC50,second compound 0.1 µM,5.32 nM
same,IC50,second compound 0.316 µM,< 3.16 nM
same,IC50,second compound 1 µM,< 3.16 nM
same,"viability, T/C",[3],88.6%
same,"viability, T/C",[4],83.6%
same,"viability, T/C",[5],80.5%
same,"viability, T/C",[6],82.3%
same,"viability, T/C","second compound 0.00316 µM, first compound 0.316 µM",95.2%
same,"viability, T/C","second compound 0.00316 µM, first compound 1 µM",53.5%
same,"viability, T/C",[9],107%
same,"viability, T/C",[10],82.3%
same,"viability, T/C",[11],110%
same,"viability, T/C",[12],89.8%
same,"viability, T/C","second compound 0.01 µM, first compound 0.316 µM",79.4%
same,"viability, T/C","second compound 0.01 µM, first compound 1 µM",33.8%
same,"viability, T/C",[15],90.2%
same,"viability, T/C",[16],81.8%
same,"viability, T/C",[17],82.2%
same,"viability, T/C",[18],75.1%
same,"viability, T/C","second compound 0.0316 µM, first compound 0.316 µM",44.3%
same,"viability, T/C","second compound 0.0316 µM, first compound 1 µM",22.3%
same,"viability, T/C",[21],57%
same,"viability, T/C",[22],41.3%
same,"viability, T/C",[23],30.7%
same,"viability, T/C",[24],24.1%
same,"viability, T/C","second compound 0.1 µM, first compound 0.316 µM",18.2%
same,"viability, T/C","second compound 0.1 µM, first compound 1 µM",17.9%
same,"viability, T/C",[27],25.4%
same,"viability, T/C",[28],16.3%
same,"viability, T/C",[29],14.8%
same,"viability, T/C",[30],16.9%
same,"viability, T/C","second compound 0.316 µM, first compound 0.316 µM",17.1%
same,"viability, T/C","second compound 0.316 µM, first compound 1 µM",16.6%
same,"viability, T/C",[33],15.2%
same,"viability, T/C",[34],16.1%
same,"viability, T/C",[35],13.6%
same,"viability, T/C",[36],16.8%
same,"viability, T/C","second compound 1 µM, first compound 0.316 µM",19%
same,"viability, T/C","second compound 1 µM, first compound 1 µM",16.4%
